Results taken from US9820943B2, “Micronized amoxicillin” (DSM SINOCHEM PHARMACEUTICALS NETHERLANDS B.V., priority 2013, dated 2017).

Experiments:
Format in all cases: physicochemical
[1] = Specific powder surface area by nitrogen gas sorption (BET); conditions: triplicate, trihydrate
Method: Specific powder surface area was determined using nitrogen gas sorption (Smartsorb, Smart Instruments, Mumbai, India). Prior to measurements, samples were regenerated by degassing to remove moisture and contamination. The regenerated sample was dipped in liquid nitrogen and the quantity of the adsorbed gas was measured using a thermal conductivity detector and subsequently integrated using an electronic circuit in terms of counts. The instrument was calibrated by injecting a known quantity of nitrogen. The measured parameters were subsequently used to calculate the surface area of the sample by employing the adsorption theories of Brunauer, Emmett and Teller (BET).
(§1) Parameters operated were: • Augar Speed: 5-90 rpm • Primary Air Pressure: 2-8 kg·cm^−2 • Secondary Air Pressure: 4-10 kg·cm^−2 The surface area (in triplicate), average particle size and contact angle (in quadruplicate) were determined as outlined in the General section. The purity of the amoxicillin trihydrate samples was 99.4±0.3% and were void of dichloromethane, isopropanol, pivalic acid and triethyl amine.

[2] = Powder dissolution, USP/NF paddle method with HPLC analysis; conditions: 500 mg in 900 mL water, 37 °C, 75 rpm; for Amoxicillin released in solution Mean: mean of 3; for Amoxicillin released in solution #1: replicate #1; for Amoxicillin released in solution #2: replicate #2; for Amoxicillin released in solution #3: replicate #3
Method: Dissolution analysis of amoxicillin trihydrate powder samples was carried out using the USP/NF paddle method at a rotational speed of 75 rpm. Ultrapure ELGA laboratory water (900 mL) was used as dissolution medium. Media were equilibrated to 37.0±0.5° C. prior to dissolution. Amoxicillin trihydrate sample powder (500 mg) was directly added to the dissolution apparatus (Electrolab USP-24, India). Samples were collected at 0, 1, 3, 5, 10, 15, 30, 60 and 90 min, filtered through 0.2 μm filters and analyzed by HPLC. Dissolution profiles were constructed by plotting the percentage amoxicillin released against time.
The HPLC system (Shimadzu Corporation, Kyoto, Japan) comprised of an SCL-10A VP system controller, LC-10AT VP liquid chromatograph, FCV-10AL VP flow control valve, DGU-14A degasser, SIL-10AD VP auto-injector, CTO-10AS VP column oven, SPD-M20A prominence diode array (PDA) detector and data acquisition Class-VP 6.10 software. The HPLC method was adopted from the United States Pharmacopoeia (USP). The method was validated for linearity, precision, accuracy and intra- and inter-day variability. The mobile phase was 50 mM monobasic potassium phosphate:methanol (96:4, v/v, pH 5.0). All analyses were carried out using Lichrospher® 100 RP-18e analytical column (5 μm, Merck KGaA, Darmstadt, Germany) under isocratic conditions at a flow rate of 1.0 mL·min^−1 at 25° C. with 20 μL injection volume. Effluent was monitored at a wavelength of 230 nm. Samples for calibration curve generation were prepared in 50 mM monobasic potassium phosphate:methanol 1:1 (v/v) proportion at a concentration range of 1 to 600 μg·mL^−1.
The three non-micronized (i.e. entries 1-3 of Table 1) and micronized (i.e. entries 4-6 of Table 1) amoxicillin trihydrate samples of Example 1 were subjected to a powder dissolution test (in triplicate) as outlined in the General section.

[3] = Particle size distribution by laser diffraction (Malvern); conditions: trihydrate
Method: Particle size distribution values D10, D50, D90 and D100 were determined using laser diffraction applying Malvern equipment. A suitable apparatus for determining D10, D50, D90 and D100 is a Malvern particle sizer 2600 C or a Malvern Zeta Sizer.
as §1

[4] = Contact angle by sessile drop method (water); conditions: ambient conditions, trihydrate
Method: Contact angles of amoxicillin trihydrate powder samples were measured by the sessile drop method using an Drop Shape Analyzer instrument (FTA 1000, First Ten Angstrom, Virginia, USA). Powder samples were mounted on double sided adhesive tape adhered to a glass slide and excess powder was removed by tapping the slide. A drop of probe liquid (water) was dispersed onto the sample surface and video images were captured by the FTA image analyzer. The contact angle was calculated by the instrument by fitting a mathematical expression to the shape of the drop followed by calculating the slope of the tangent to the drop at the liquid-solid-vapor interface line. The surface tension of ultrapure ELGA laboratory water was measured to be 73±0.5 mN·m^−1 at 25° C. All measurements were performed in air under ambient conditions and an average of four measurements was reported in the below Examples.
as §1

Which “Surface Area Mean ± SD (n = 3)” value [1] does the source give for `CC1(C)S[C@@H]2[C@H](NC(=O)[C@H](N)c3ccc(O)cc3)C(=O)N2[C@H]1C(=O)O.O.O.O` [entry 1, amoxicillin trihydrate] here?
Its value is 0.58 ± 0.09 m^2 · g^−1.

What about the “Amoxicillin released in solution Mean” value ([2]; 0 min) of the same compound?
The value was 0%.

And the “Amoxicillin released in solution #1” value ([2]; 0 min)?
The value was 0%.

And the “Amoxicillin released in solution #2” value ([2]; 0 min)?
Its value is 0%.

What about the “Amoxicillin released in solution #3” value ([2]; 0 min) of the same compound?
The value was 0%.

What about the “Amoxicillin released in solution Mean” value ([2]; 1 min, trihydrate) of the same compound?
Its value is 85.98%.

What about the “Amoxicillin released in solution #1” value ([2]; 1 min, trihydrate) of the same compound?
The value was 84.65%.

And the “Amoxicillin released in solution #2” value ([2]; 1 min, trihydrate)?
Its value is 86.65%.

And the “Amoxicillin released in solution #3” value ([2]; 1 min, trihydrate)?
The value was 86.65%.

And the “Amoxicillin released in solution Mean” value ([2]; 3 min, trihydrate)?
Its value is 99.25%.

What about the “Amoxicillin released in solution #1” value ([2]; 3 min, trihydrate) of the same compound?
The value was 99.74%.

And the “Amoxicillin released in solution #2” value ([2]; 3 min, trihydrate)?
Its value is 99.01%.

And the “Amoxicillin released in solution #3” value ([2]; 3 min, trihydrate)?
Its value is 99.01%.

And the “Amoxicillin released in solution Mean” value ([2]; 5 min, trihydrate)?
The value was 99.51%.

And the “Amoxicillin released in solution #1” value ([2]; 5 min, trihydrate)?
The value was 99.44%.

What about the “Amoxicillin released in solution #2” value ([2]; 5 min, trihydrate) of the same compound?
Its value is 99.54%.

And the “Amoxicillin released in solution #3” value ([2]; 5 min, trihydrate)?
The value was 99.54%.

What about the “Amoxicillin released in solution Mean” value ([2]; 10 min, trihydrate) of the same compound?
Its value is 99.14%.

What about the “Amoxicillin released in solution #1” value ([2]; 10 min, trihydrate) of the same compound?
The value was 98.65%.

And the “Amoxicillin released in solution #2” value ([2]; 10 min, trihydrate)?
The value was 99.04%.

What about the “Amoxicillin released in solution #3” value ([2]; 10 min, trihydrate) of the same compound?
The value was 99.73%.

And the “Amoxicillin released in solution Mean” value ([2]; 15 min, trihydrate)?
Its value is 99.12%.

What about the “Amoxicillin released in solution #1” value ([2]; 15 min, trihydrate) of the same compound?
The value was 99.28%.

What about the “Amoxicillin released in solution #2” value ([2]; 15 min, trihydrate) of the same compound?
Its value is 98.69%.

And the “Amoxicillin released in solution #3” value ([2]; 15 min, trihydrate)?
The value was 99.38%.

What about the “Amoxicillin released in solution Mean” value ([2]; 30 min, trihydrate) of the same compound?
Its value is 99.31%.

What about the “Amoxicillin released in solution #1” value ([2]; 30 min, trihydrate) of the same compound?
The value was 99.50%.

And the “Amoxicillin released in solution #2” value ([2]; 30 min, trihydrate)?
The value was 99.56%.

And the “Amoxicillin released in solution #3” value ([2]; 30 min, trihydrate)?
Its value is 98.87%.

What about the “Amoxicillin released in solution Mean” value ([2]; 60 min, trihydrate) of the same compound?
Its value is 99.25%.

And the “Amoxicillin released in solution #1” value ([2]; 60 min, trihydrate)?
Its value is 99.56%.

And the “Amoxicillin released in solution #2” value ([2]; 60 min, trihydrate)?
Its value is 99.10%.

And the “Amoxicillin released in solution #3” value ([2]; 60 min, trihydrate)?
Its value is 99.10%.

What about the “Amoxicillin released in solution Mean” value ([2]; 90 min, trihydrate) of the same compound?
Its value is 99.76%.

And the “Amoxicillin released in solution #1” value ([2]; 90 min, trihydrate)?
Its value is 99.93%.

What about the “Amoxicillin released in solution #2” value ([2]; 90 min, trihydrate) of the same compound?
Its value is 99.61%.

What about the “Amoxicillin released in solution #3” value ([2]; 90 min, trihydrate) of the same compound?
Its value is 99.74%.

What about the “Average Particle Size D10” value [3] of the same compound?
Its value is 12.3 μm.

What about the “Average Particle Size D50” value [3] of the same compound?
Its value is 39.8 μm.

And the “Average Particle Size D90” value [3]?
Its value is 93.3 μm.

And the “Average Particle Size D100” value [3]?
Its value is 275.9 μm.

And the “Contact Angle Mean ± SD (n = 4)” value [4]?
Its value is 75.50 ± 2.95.

Which results are given for `CC1(C)S[C@@H]2[C@H](NC(=O)[C@H](N)c3ccc(O)cc3)C(=O)N2[C@H]1C(=O)O.O.O.O` [entry 2, amoxicillin trihydrate]?
Surface Area Mean ± SD (n = 3) [1]: 0.69 ± 0.03 m^2 · g^−1; Amoxicillin released in solution Mean ([2]; 0 min): 0%; Amoxicillin released in solution #1 ([2]; 0 min): 0%; Amoxicillin released in solution #2 ([2]; 0 min): 0%; Amoxicillin released in solution #3 ([2]; 0 min): 0%; Amoxicillin released in solution Mean ([2]; 1 min, trihydrate): 61.71%; Amoxicillin released in solution #1 ([2]; 1 min, trihydrate): 61.68%; Amoxicillin released in solution #2 ([2]; 1 min, trihydrate): 61.21%; Amoxicillin released in solution #3 ([2]; 1 min, trihydrate): 62.23%; Amoxicillin released in solution Mean ([2]; 3 min, trihydrate): 99.69%; Amoxicillin released in solution #1 ([2]; 3 min, trihydrate): 99.58%; Amoxicillin released in solution #2 ([2]; 3 min, trihydrate): 99.88%; Amoxicillin released in solution #3 ([2]; 3 min, trihydrate): 99.60%; Amoxicillin released in solution Mean ([2]; 5 min, trihydrate): 98.99%; Amoxicillin released in solution #1 ([2]; 5 min, trihydrate): 99.89%; Amoxicillin released in solution #2 ([2]; 5 min, trihydrate): 99.79%; Amoxicillin released in solution #3 ([2]; 5 min, trihydrate): 97.29%; Amoxicillin released in solution Mean ([2]; 10 min, trihydrate): 99.66%; Amoxicillin released in solution #1 ([2]; 10 min, trihydrate): 99.66%; Amoxicillin released in solution #2 ([2]; 10 min, trihydrate): 98.95%; Amoxicillin released in solution #3 ([2]; 10 min, trihydrate): 100.36%; Amoxicillin released in solution Mean ([2]; 15 min, trihydrate): 99.43%; Amoxicillin released in solution #1 ([2]; 15 min, trihydrate): 99.51%; Amoxicillin released in solution #2 ([2]; 15 min, trihydrate): 98.98%; Amoxicillin released in solution #3 ([2]; 15 min, trihydrate): 99.80%; Amoxicillin released in solution Mean ([2]; 30 min, trihydrate): 99.33%; Amoxicillin released in solution #1 ([2]; 30 min, trihydrate): 99.65%; Amoxicillin released in solution #2 ([2]; 30 min, trihydrate): 99.00%; Amoxicillin released in solution #3 ([2]; 30 min, trihydrate): 99.34%; Amoxicillin released in solution Mean ([2]; 60 min, trihydrate): 99.45%; Amoxicillin released in solution #1 ([2]; 60 min, trihydrate): 99.56%; Amoxicillin released in solution #2 ([2]; 60 min, trihydrate): 99.17%; Amoxicillin released in solution #3 ([2]; 60 min, trihydrate): 99.60%; Amoxicillin released in solution Mean ([2]; 90 min, trihydrate): 99.15%; Amoxicillin released in solution #1 ([2]; 90 min, trihydrate): 99.24%; Amoxicillin released in solution #2 ([2]; 90 min, trihydrate): 99.24%; Amoxicillin released in solution #3 ([2]; 90 min, trihydrate): 98.96%; Average Particle Size D10 [3]: 13.5 μm; Average Particle Size D50 [3]: 40.6 μm; Average Particle Size D90 [3]: 94.3 μm; Average Particle Size D100 [3]: 237.5 μm; Contact Angle Mean ± SD (n = 4) [4]: 67.70 ± 1.39
